Tested on: Enpp2, Lpar3 and ptgs2 mRNA (LPA signalling pathway) in the uterus
Test: Quantitative PCR of key molecules in the LPA signalling pathway in mouse uteri
Format: in vivo
Conditions: mice, 10 μg/kg·BW
Experimental: 6-8-week-old ICR female mice acclimatized to the laboratory mouse house environment and in a good condition were selected and divided into a batch farrowing with FTAI model group, a batch farrowing with FTAI+low-dose model group, and a batch farrowing with FTAI+high-dose model group, and 10IU PMSG was injected at 17:00 pm. […] At 7:00-9:00 the next morning, vaginal plugs were examined, and this day was recorded as day 1 (D1) of pregnancy. In the afternoon of day 5 (D5) of pregnancy, 0.4 ml of 1% Chicago blue-normal saline solution was injected into model mice at the caudal vein, and after 3 minutes of systemic circulation, the mice were sacrificed by means of cervical dislocation, the abdominal cavity was immediately cut open, and the abdominal aorta was cut for bleeding. […] Blue dots on the uterus were recorded as embryo implantation sites, the number of implantation sites was counted, and patterns of embryo spacing in different groups were drawn.
Unfixed uteri were isolated for RNA extraction, reverse transcription and quantitative PCR detection of several key target molecules in the LPA signalling pathway, i.e., detection of Enpp2 (a gene for the expression of ATX, the key enzyme of LPA synthesis), Lpar3 (LPA receptor gene), and ptgs2 (a key gene downstream of LPAR). […]

Structure (SMILES): N#Cc1ccc(C(c2ccc(C#N)cc2)n2cncn2)cc1 [1-[bis(4-cyanophenyl)methyl]-1,2,4-triazole]
- Enpp2, Lpar3 and ptgs2 mRNA levels in the uteri (compared with batch farrowing with FTAI model group): significantly higher
- Enpp2, Lpar3 and ptgs2 mRNA levels in the uteri (compared with natural estrus group): no significant difference

Reference: patent US12678488B2, “Batch management method for improving farrowing rate or number of piglets born alive in swine” (priority 2024, dated 2026)
